Measured values: the NIST ThermoML archive (doi:10.1016/j.fluid.2004.09.013)

Details: for mass density: Fluid (supercritical or subcritical phases), Vibrating tube method; for vapor or sublimation pressure: Liquid

C=C(C)C [2-methylpropene]
Details	mass density [kg/m3]
273.23 K, 615 kPa	619.2
273.23 K, 9987 kPa	631.07
273.23 K, 15001 kPa	636.64
273.23 K, 20001 kPa	641.78
273.23 K, 25007 kPa	646.58
273.23 K, 29992 kPa	651.06
273.23 K, 34986 kPa	655.29
273.23 K, 40007 kPa	659.29
273.24 K, 5018 kPa	625.04
278.24 K, 625 kPa	613.32
278.24 K, 9983 kPa	625.79
278.24 K, 29985 kPa	646.57
278.25 K, 4992 kPa	619.43
278.25 K, 14997 kPa	631.6
278.25 K, 19994 kPa	636.96
278.25 K, 24995 kPa	641.93
278.25 K, 35001 kPa	650.96
278.25 K, 39983 kPa	655.07
283.26 K, 623 kPa	607.34
283.26 K, 4980 kPa	613.78
283.26 K, 10001 kPa	620.49
283.26 K, 15002 kPa	626.55
283.26 K, 19992 kPa	632.11
283.26 K, 24993 kPa	637.28
283.26 K, 29994 kPa	642.09
283.26 K, 34999 kPa	646.62
283.26 K, 39994 kPa	650.87
288.27 K, 622 kPa	601.26
288.27 K, 4986 kPa	608.09
288.27 K, 9999 kPa	615.12
288.27 K, 15002 kPa	621.46
288.27 K, 20000 kPa	627.26
288.27 K, 24990 kPa	632.61
288.27 K, 30003 kPa	637.6
288.27 K, 35005 kPa	642.28
288.27 K, 40002 kPa	646.66
293.28 K, 624 kPa	595.08
293.28 K, 4999 kPa	602.33
293.28 K, 9991 kPa	609.69
293.28 K, 14989 kPa	616.34
293.28 K, 19994 kPa	622.38
293.28 K, 24993 kPa	627.94
293.28 K, 30001 kPa	633.11
293.28 K, 35003 kPa	637.94
293.28 K, 39987 kPa	642.44
298.3 K, 624 kPa	588.78
298.3 K, 4988 kPa	596.46
298.3 K, 9992 kPa	604.23
298.3 K, 14991 kPa	611.17
298.3 K, 20004 kPa	617.49
298.3 K, 25009 kPa	623.26
298.3 K, 30005 kPa	628.61
298.3 K, 34998 kPa	633.59
298.3 K, 40003 kPa	638.26
303.3 K, 638 kPa	582.38
303.3 K, 14996 kPa	606.02
303.3 K, 19992 kPa	612.59
303.3 K, 24991 kPa	618.59
303.3 K, 34996 kPa	629.29
303.3 K, 39999 kPa	634.1
303.31 K, 4990 kPa	590.52
303.31 K, 9994 kPa	598.73
303.31 K, 29988 kPa	624.13
308.31 K, 706 kPa	575.94
308.32 K, 4988 kPa	584.48
308.32 K, 9989 kPa	593.14
308.32 K, 14992 kPa	600.77
308.32 K, 19998 kPa	607.63
308.32 K, 24997 kPa	613.87
308.32 K, 30005 kPa	619.62
308.32 K, 34988 kPa	624.91
308.32 K, 40003 kPa	629.89
313.2 K, 951 kPa	569.89
313.2 K, 4993 kPa	578.43
313.2 K, 9992 kPa	587.58
313.2 K, 14986 kPa	595.55
313.2 K, 19994 kPa	602.7
313.2 K, 24994 kPa	609.17
313.2 K, 29987 kPa	615.08
313.2 K, 34991 kPa	620.58
313.2 K, 40013 kPa	625.7
318.21 K, 1034 kPa	563.28
318.21 K, 4991 kPa	572.22
318.21 K, 9993 kPa	581.88
318.21 K, 15000 kPa	590.28
318.21 K, 20002 kPa	597.73
318.21 K, 24998 kPa	604.47
318.21 K, 29993 kPa	610.61
318.21 K, 34995 kPa	616.28
318.21 K, 39991 kPa	621.54
323.22 K, 1130 kPa	556.5
323.22 K, 5015 kPa	565.89
323.22 K, 10019 kPa	576.14
323.22 K, 15017 kPa	584.94
323.22 K, 20010 kPa	592.7
323.22 K, 25016 kPa	599.69
323.22 K, 30006 kPa	606.04
323.22 K, 34990 kPa	611.88
328.22 K, 1213 kPa	549.51
328.22 K, 4997 kPa	559.34
328.22 K, 10001 kPa	570.24
328.22 K, 14997 kPa	579.49
328.22 K, 19998 kPa	587.62
328.22 K, 24989 kPa	594.87
328.22 K, 29993 kPa	601.47
328.22 K, 35002 kPa	607.53
333.22 K, 1303 kPa	542.34
333.22 K, 4983 kPa	552.65
333.22 K, 9997 kPa	564.28
333.22 K, 15001 kPa	574.03
333.22 K, 19998 kPa	582.51
333.22 K, 25001 kPa	590.09
333.22 K, 30012 kPa	596.94
333.22 K, 34994 kPa	603.17
338.22 K, 1401 kPa	534.97
338.22 K, 4983 kPa	545.83
338.22 K, 9985 kPa	558.2
338.22 K, 14988 kPa	568.49
338.22 K, 20002 kPa	577.4
338.22 K, 24995 kPa	585.25
338.22 K, 30004 kPa	592.35
338.22 K, 34989 kPa	598.79
338.23 K, 39972 kPa	604.69
343.22 K, 1507 kPa	527.38
343.22 K, 4990 kPa	538.84
343.22 K, 14984 kPa	562.89
343.22 K, 19992 kPa	572.21
343.22 K, 24986 kPa	580.39
343.23 K, 10002 kPa	552.06
343.23 K, 29994 kPa	587.74
343.23 K, 35010 kPa	594.44
348.23 K, 1624 kPa	519.55
348.23 K, 4982 kPa	531.6
348.23 K, 9996 kPa	545.8
348.23 K, 15003 kPa	557.28
348.23 K, 19988 kPa	566.99
348.23 K, 24994 kPa	575.52
348.23 K, 29995 kPa	583.14
348.23 K, 34998 kPa	590.02
353.23 K, 1750 kPa	511.45
353.23 K, 4999 kPa	524.22
353.23 K, 9995 kPa	539.41
353.23 K, 15002 kPa	551.55
353.23 K, 19988 kPa	561.74
353.23 K, 24993 kPa	570.61
353.23 K, 29992 kPa	578.51
353.23 K, 35002 kPa	585.65
358.23 K, 1880 kPa	503.02
358.23 K, 4995 kPa	516.51
358.23 K, 9992 kPa	532.9
358.23 K, 14994 kPa	545.74
358.23 K, 19987 kPa	556.44
358.23 K, 25000 kPa	565.71
358.23 K, 29992 kPa	573.87
358.23 K, 34986 kPa	581.23
363.23 K, 2029 kPa	494.29
363.23 K, 4995 kPa	508.53
363.23 K, 9990 kPa	526.24
363.23 K, 14992 kPa	539.87
363.23 K, 19984 kPa	551.08
363.23 K, 25007 kPa	560.75
363.23 K, 29987 kPa	569.21
363.23 K, 34996 kPa	576.84
368.23 K, 2186 kPa	485.16
368.23 K, 4992 kPa	500.2
368.23 K, 9984 kPa	519.43
368.23 K, 14990 kPa	533.92
368.23 K, 29990 kPa	564.54
368.24 K, 19992 kPa	545.7
368.24 K, 25001 kPa	555.77
368.24 K, 35000 kPa	572.42
373.23 K, 2351 kPa	475.57
373.23 K, 29996 kPa	559.86
373.23 K, 34996 kPa	567.99
373.24 K, 4995 kPa	491.52
373.24 K, 9984 kPa	512.47
373.24 K, 14991 kPa	527.88
373.24 K, 19998 kPa	540.27
373.24 K, 25004 kPa	550.75
373.24 K, 39995 kPa	575.36
378.24 K, 2531 kPa	465.5
378.24 K, 4999 kPa	482.41
378.24 K, 9996 kPa	505.39
378.24 K, 14983 kPa	521.73
378.24 K, 19996 kPa	534.78
378.24 K, 25004 kPa	545.72
378.24 K, 29995 kPa	555.17
378.24 K, 34988 kPa	563.54
383.24 K, 2689 kPa	454.37
383.24 K, 4984 kPa	472.67
383.24 K, 9995 kPa	498.07
383.24 K, 14986 kPa	515.53
383.24 K, 20004 kPa	529.26
383.24 K, 25006 kPa	540.65
383.24 K, 29986 kPa	550.43
383.24 K, 34992 kPa	559.1
388.24 K, 2901 kPa	443.01
388.24 K, 4994 kPa	462.48
388.24 K, 9997 kPa	490.56

Details	vapor or sublimation pressure [kPa]
285.97 K	206.58
297.46 K	297.04
307.88 K	404.2
315.82 K	503.41
324.78 K	633
328.93 K	704.67
337.82 K	871.92
348.26 K	1100.8
357.33 K	1343.9
364.25 K	1545.1
371.52 K	1784.7
380.19 K	2094.5
386.12 K	2332.7
